assay: gradient 5% acetonitrile 3 min, to 50% in 2 min, to 85% in 15 min, held 3 min, 100 µL/min; details: column: Zorbax Extend-C18 2.1 x 50 mm; eluents: water / acetonitrile, 0.1% formic acid
Outline: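 Values are retention times taken from adduct peaks that software picked and an analyst inspected. The pure standards were run as mixtures of ~100 molecules on HPLC linked to a quadrupole time-of-flight mass spectrometer, in positive and negative ionization mode. A Zorbax Extend-C18 column (2.1 × 50 mm, 1.8 μm) was used at 100 μL/min with water and acetonitrile, each including 0.1% formic acid.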

Row | Compound | RP-LC retention time [s]
1 | CCCn1ccc2sc(C)c(C(=O)NC3CCCCC3)c2c1=O | 884
2 | COCC1(O)CCOC2(CCN(Cc3ccc(C)cc3)CC2)C1 (stereo not given) | 556
3 | COCCc1noc(C2CN(C(=O)C(C)C)C2)n1 | 621
4 | O=S(=O)(c1ccc2nc(N3CCN(c4ccccc4F)CC3)ccc2c1)N1CCCCC1 | 1160
5 | CCC(C)NC(=O)c1ccc(-c2cccs2)nc1 (stereo not given) | 816
6 | Cc1ccc(C(=O)Nc2ccc(OCc3nnc(-c4ccccc4)o3)cc2)s1 | 988
7 | O=C(CCC[C@@H]1[C@H]2CCCN3CCC[C@@H](CN1C(=O)c1cccs1)[C@@H]23)NCC1CC1 | 586
8 | CCCCn1cc(S(=O)(=O)Nc2ccccc2)c2cccnc21 | 937
9 | CCN(CC)C(=O)N1CCCC(Cc2nncn2-c2ccccc2)C1 (stereo not given) | 628
10 | Cc1cc(C(=O)Nc2ccc(N3CCOCC3)cc2)nc2cc(-c3ccccn3)nn12 | 802
11 | Cc1csc(-c2ccc(N3CCN(C(=O)c4cc(F)ccc4F)CC3)nc2)n1 | 996
12 | CCNC(=O)c1sc2nc(-c3cccc(C)c3)c(NCCOC)n2c1C | 737
13 | COc1ccc(NC(=O)c2cn3c(n2)CCCC3)cc1 | 574
14 | CC(C)c1ccc(NC(=O)C2CCN(S(=O)(=O)c3cn(C)cn3)CC2)cc1 | 797
15 | COc1ccc(NC(=O)C2CN(S(C)(=O)=O)CC23CCCCC3)c(OC)c1 (stereo not given) | 860
16 | COC(=O)c1cnc2nc(C)ccc2c1Nc1cccc(Cl)c1F | 704
17 | CCn1ccc(C(=O)N2CC(N(C3CCOCC3)S(C)(=O)=O)C2)n1 | 625
18 | Cn1cccc1Cc1nnc(SCC(=O)NO)n1Cc1ccccc1 | 621
19 | O=C(c1cc(-c2ccncc2)n[nH]1)N1CCCC(C(=O)N2CCN(c3ncccn3)CC2)C1 (stereo not given) | 579
20 | O=S(=O)(Nc1ccc2c(c1)OCO2)c1ccc2nncn2c1 | 648
21 | CCCn1c(=O)c(C)nc2cc(-c3noc(/C=C/c4ccc(OC)cc4)n3)ccc21 | 1210
22 | O=C(c1ccsc1)N1CCCN(c2cc(-c3ccccc3)[nH]n2)CC1 | 741
23 | CCc1ccc(S(=O)(=O)c2cnc(N3CCN(c4ccccn4)CC3)nc2N)cc1 | 680

Row | Compound | RP-LC retention time [s]
24 | O=C1NCCCCCN(C(=O)c2cccs2)[C@H]2CCC[C@@H]12 | 698
25 | COc1cccc(NS(=O)(=O)c2cccc(-c3nc(-c4ccccc4)no3)c2)c1 | 1140
26 | O=C(NCc1ccccc1F)C1CCCN(c2nc3ccsc3c(=O)n2Cc2ccccc2)C1 (stereo not given) | 943
27 | CCn1ccc(C(=O)Nc2cccc(OCc3nnc(-c4ccc(OC)cc4)o3)c2)n1 | 891
28 | O=C(Cn1cnc2nc3c(cc2c1=O)CCCC3)NC1CCCCCC1 | 662
29 | O=C(Nc1ccc(F)c(Cl)c1)C1CCN(C(=O)c2ncn3c2COC(c2ccccc2)C3)CC1 (stereo not given) | 864
30 | Cc1nn(Cc2nc(-c3ccc(NC(=O)c4ccsc4)cc3)oc2C)c(C)c1C | 955
31 | CCC(C)n1c(=O)c2ccccc2n(Cc2nc(-c3cccc(Br)c3)no2)c1=O (stereo not given) | 1290
32 | CCCCN1C(=O)C(C)(C(=O)NCc2cccc(C)c2)Oc2cccnc21 (stereo not given) | 1030
33 | COc1ccc(-c2nc3ccc(C)cn3c2Nc2ccccc2C)cc1 | 761
34 | O=S(=O)(c1ccc(F)c(F)c1)N1CCC(CN2CCCCCC2)CC1 | 666
35 | O=C(c1cn(-c2cc(N3CCCCC3)ncn2)cn1)N1CCN(C(=O)c2ccco2)CC1 | 675
36 | CCN1CCN(S(=O)(=O)c2cccc(-c3nc(-c4ccc(C)cc4)no3)c2)CC1 | 786
37 | CC1CCCN(CCCNC(=O)CCC(=O)N2CCc3c(c(C(=O)N4CCCCC4)nn3C)C2)C1 (stereo not given) | 594
38 | O=C(C1CC(=O)N(c2ccc3c(c2)CCN3C(=O)C2CC2)C1)N1CCCC1 (stereo not given) | 647
39 | CCc1ccc(NC(=O)C2CCN(S(=O)(=O)c3ccc4c(c3)NC(=O)C(C)O4)CC2)cc1 (stereo not given) | 927
40 | Cc1ccc(NC(=O)N2CCc3[nH]cnc3C2c2ccncc2)cc1Cl (stereo not given) | 585
41 | COc1cccc(NC(=O)C2CCN(S(=O)(=O)c3ccc4c(c3)sc(=O)n4C)CC2)c1 | 845
42 | CCC(=O)N1CCC(Oc2nccnc2N2CCOCC2)C1 (stereo not given) | 646
43 | O=C(NCC(F)(F)F)c1ccc(N2CCCC2)nn1 | 570
44 | CCOc1ccccc1C1C(C#N)=C(N)Oc2cc(C)n(CCN(C)C)c(=O)c21 (stereo not given) | 597
45 | Cc1ccc(Cl)cc1NC(=O)N1CCCC1c1c(C)noc1C (stereo not given) | 853
46 | Cc1ccc(S(=O)(=O)N2CCC(c3noc(-c4cccc(F)c4)n3)CC2)cc1 | 1160

Row | Compound | RP-LC retention time [s]
47 | Cc1ccsc1-c1nc(-c2ccc3ncn(C)c3c2)no1 | 732
48 | O=C(Cn1c(=O)oc2ccccc21)N1CCC(Oc2nc3c(Cl)cccc3s2)CC1 | 979
49 | CCOc1ccc(-c2csc(NC(=O)CCn3c(=O)oc4ccccc43)n2)cc1 | 997
50 | COc1ccc(NC(=O)Cn2c(C)nc3c(sc4nc(-c5ccccc5)ccc43)c2=O)c(OC)c1 | 1040
51 | Cc1ccc(CNC(=O)C2CCN(C(=O)c3cc(-c4ccncc4)n[nH]3)CC2)o1 | 586
52 | CCOc1cccc2sc(N(Cc3ccccn3)C(=O)c3nn(C)cc3C)nc12 | 763
53 | COCCCNC(=O)c1ccc(-c2ccc(N3CCSCC3)nc2)cc1 | 646
54 | CCc1cccc(NC(=O)C2CCCN(S(=O)(=O)c3c[nH]c(C(=O)N4CCCC4)c3)C2)c1 (stereo not given) | 877
55 | COCc1nnc2n1CCC(NC(=O)C1CC=CC1)CC2 (stereo not given) | 587
56 | CCOc1ccc(N2CCn3c2nnc(C(=O)NCc2ccco2)c3=O)cc1 | 684
57 | CCc1ccc(S(=O)(=O)N2CCC(n3cnnc3C)CC2)cc1 | 715
58 | CC(C)(C)c1cc(C(=O)NC2CCCC2)nc2ccnn12 | 1150
59 | CCc1ccc(-n2cc(C(=O)O)nn2)cc1 | 727
60 | Cc1ccc(-c2noc(-c3cccc(S(=O)(=O)NCCN4CCCCCC4)c3)n2)cc1 | 794
61 | N#CC1(c2ccc(NC(=O)c3cccnc3NCc3ccncc3)cc2)CCCC1 | 734
62 | O=C(COc1ccccc1F)N1CCN(Cc2nc(C3CC3)cs2)CC1 | 640
63 | COc1ccc(NC(=O)N2CCc3[nH]cnc3C2c2ccccn2)cc1OC (stereo not given) | 568
64 | Cc1ccc(-c2[nH]ncc2CN2CCn3c(nn(C)c3=O)C2)cc1C | 638
65 | Brc1ccc(-c2noc(Cc3nc(-c4ccccc4)cs3)n2)cc1 | 1350
66 | CC(NC(=O)c1ccc(C#N)cc1)C(=O)N1CCCc2ccccc21 (stereo not given) | 818
67 | Cc1nc(-c2csc(S(=O)(=O)N3CCC(C(=O)NCCc4ccc(Cl)cc4)CC3)c2)no1 | 938
68 | CC1CCCN(S(=O)(=O)c2ccc(-n3cnc(C(=O)NC4CC4)c3)nc2)C1 (stereo not given) | 798
69 | CC(C)n1c(=O)oc2cc(-c3noc(-c4ccccc4F)n3)ccc21 | 1160

Row | Compound | RP-LC retention time [s]
70 | CCc1cccc(NC(=O)Cc2nc(C)c(C(=O)NCC(C)C)s2)c1 | 886
71 | CCc1cccc(-n2nnnc2N2CCN(C(=O)Nc3ccc(C)c(F)c3)CC2)c1 | 981
72 | O=C(NCc1cc(F)ccc1F)c1cn2c(n1)CCCC2 | 601
73 | c1ccc(-c2csc(NCc3ccco3)n2)cc1 | 912
74 | Cc1ccc(NC(=O)N2CCC(n3c(C(F)(F)F)nc4cccnc43)CC2)cc1F | 944
75 | COc1ccc(-c2noc(-c3cccnc3N3CCN(c4ccccc4OC)CC3)n2)cc1 | 1150
76 | CC1=NN(c2cccc(C(=O)O)c2)C(=O)/C1=C\c1ccc(-c2ccc(Cl)c(C(=O)O)c2)o1 | 1050
77 | CCOc1ccc(C(C)NC(=O)C2CCCN(c3cnc4nccnc4c3)C2)cc1 (stereo not given) | 712
78 | Clc1ccc(C2CC3CCC2N3)cn1 (stereo not given) | 613
79 | Cc1nc(-c2noc(-c3ccccc3)n2)cn1CC(=O)N1CCN(c2ccc(F)cc2)CC1 | 868
80 | Cc1ccc2ncn(C3CCN(S(=O)(=O)c4cccc(Cl)c4)CC3)c(=O)c2c1 | 963
81 | Cc1cccc2sc(N(CCN(C)C)C(=O)c3ccc(S(=O)(=O)N(C)C)cc3)nc12 | 598
82 | Cc1nc(-c2ccc(C(=O)N3CC(=O)Nc4ccccc43)cc2)no1 | 668
83 | Cn1cnc2cc(-c3noc(CNC(=O)Cc4ccc(Cl)cc4)n3)ccc21 | 652
84 | Cc1cccc(C(=O)N2CCc3cc(CNC(=O)c4cc(-c5cccs5)[nH]n4)ccc32)c1 | 895
85 | C=CCn1nnnc1NCc1ccc2c(c1)n(C)c(=O)n2C | 609
86 | O=C(CN1CCCCC1c1nc(-c2cccc(F)c2)no1)Nc1ccccc1F (stereo not given) | 1230
87 | O=C(Nc1nc(-c2ccccc2)cs1)c1ccc(F)cc1 | 995
88 | O=C(NC1CC1)c1nnn(-c2ccccc2)c1-c1cccnc1 | 691
89 | Cc1noc(C)c1CCC(=O)N1CC(n2cc(COc3ccc(F)cc3)nn2)C1 | 736
90 | CCc1ccc(-c2csc(NC3OC(=O)c4ccccc43)n2)cc1 (stereo not given) | 833

Source: the METLIN SMRT retention time set (Domingo-Almenara et al. 2019)
